Earlier results in PMC7395068, “The evolution of strategies to minimise the risk of human drug-induced liver injury (DILI) in drug discovery and development” (Archives of Toxicology, 2020).
Where two headings read alike, the source gives them in different places. Where a SMILES comes first, the peptide text is derived from it. [ ]: non-standard residue; d: D form. dPhe(4-Cl) = N[C@H](Cc1ccc(Cl)cc1)C(=O)O; d2Nal = N[C@H](Cc1ccc2ccccc2c1)C(=O)O; dCit = NC(=O)NCCC[C@@H](N)C(=O)O; d3Pal = N[C@H](Cc1cccnc1)C(=O)O

Conditions: cited from earlier work
[1] = LTKB DILIrank category, ref Chen 2016
[2] = binary DILI call, ref Chen 2016

SMILES | DILI severity category [1] | DILI +VE (5-8), DILI -VE (-4) [2] | DILI +VE (5-8), DILI -VE (-4) (in vivo) | DILI severity category (in vivo)
CCC(C)C1(CC)C(=O)NC(=O)NC1=O (stereo not drawn) [butabarbital] | Ambiguous DILI-concern | -VE |  | 
C=CCN1C[C@H](C(=O)N(CCCN(C)C)C(=O)NCC)C[C@@H]2c3cccc4[nH]cc(c34)C[C@H]21 [cabergoline] | vNo-DILI-Concern | -VE |  | 
CC(C)C[C@H](NC(=O)[C@H](CCCCN)NC(=O)CNC(=O)[C@H](CC(C)C)NC(=O)[C@@H](NC(=O)[C@@H]1CSSC[C@H](N)C(=O)N[C@@H](CO)C(=O)N[C@@H](CC(N)=O)C(=O)N[C@@H](CC(C)C)C(=O)N[C@@H](CO)C(=O)N[C@@H]([C@@H](C)O)C(=O)N1)C(C)C)C(=O)N[C@@H](CO)C(=O)N[C@@H](CCC(N)=O)C(=O)N[C@@H](CCC(=O)O)C(=O)N[C@@H](CC(C)C)C(=O)N[C@@H](Cc1c[nH]cn1)C(=O)N[C@@H](CCCCN)C(=O)N[C@@H](CC(C)C)C(=O)N[C@@H](CCC(N)=O)C(=O)N[C@H](C(=O)N[C@@H](Cc1ccc(O)cc1)C(=O)N1CCC[C@H]1C(=O)N[C@@H](CCCNC(=N)N)C(=O)N[C@H](C(=O)N[C@@H](CC(N)=O)C(=O)N[C@H](C(=O)NCC(=O)N[C@@H](CO)C(=O)NCC(=O)N[C@H](C(=O)N1CCC[C@H]1C(N)=O)[C@@H](C)O)[C@@H](C)O)[C@@H](C)O)[C@@H](C)O [calcitonin salmon] |  |  | -VE | vNo-DILI-Concern
C=C1/C(=C\C=C2/CCC[C@]3(C)[C@@H]([C@H](C)CCCC(C)(C)O)CC[C@@H]23)C[C@@H](O)C[C@@H]1O [calcitriol] | vNo-DILI-Concern | -VE |  | 
CC(=O)[O-].CC(=O)[O-].[Ca+2] [calcium acetate] |  |  | -VE | vNo-DILI-Concern
CCCCCOC(=O)Nc1nc(=O)n([C@@H]2O[C@H](C)[C@@H](O)[C@H]2O)cc1F [capecitabine] | Ambiguous DILI-concern | -VE |  | 
CC1(C)S[C@@H]2[C@H](NC(=O)C(C(=O)O)c3ccccc3)C(=O)N2[C@H]1C(=O)O (stereo partly drawn) [carbenicillin] | vLess-DILI-Concern |  |  | 
CN(C)CCOC(c1ccc(Cl)cc1)c1ccccn1 (stereo not drawn) [carbinoxamine] | vNo-DILI-Concern | -VE |  | 
CCCCC[C@](C)(O)/C=C/[C@@H]1[C@@H](C/C=C\CCCC(=O)O)[C@@H](O)C[C@H]1O [carboprost tromethamine] | vNo-DILI-Concern | -VE |  | 
COc1ccccc1OCCNCC(O)COc1cccc2[nH]c3ccccc3c12 (stereo not drawn) [carvedilol] | vLess-DILI-Concern |  |  | 
CC[C@H](C)C[C@H](C)CCCCCCCCC(=O)N[C@H]1C[C@@H](O)[C@@H](NCCN)NC(=O)[C@@H]2[C@@H](O)CCN2C(=O)[C@H]([C@H](O)CCN)NC(=O)[C@H]([C@H](O)[C@@H](O)c2ccc(O)cc2)NC(=O)[C@@H]2C[C@@H](O)CN2C(=O)[C@H]([C@@H](C)O)NC1=O [caspofungin] | Ambiguous DILI-concern | -VE |  | 
N[C@@H](C(=O)N[C@@H]1C(=O)N2C(C(=O)O)=C(Cl)CS[C@H]12)c1ccccc1 [cefaclor] | vLess-DILI-Concern |  |  | 
CC1=C(C(=O)O)N2C(=O)[C@@H](NC(=O)[C@H](N)c3ccc(O)cc3)[C@H]2SC1 [cefadroxil] | vLess-DILI-Concern |  |  | 
Cc1nnc(SCC2=C(C(=O)O)N3C(=O)[C@@H](NC(=O)Cn4cnnn4)[C@H]3SC2)s1 [cefazolin] |  |  | +VE | vLess-DILI-Concern
C=CC1=C(C(=O)O)N2C(=O)[C@@H](NC(=O)/C(=N\O)c3csc(N)n3)[C@H]2SC1 [cefdinir] | vLess-DILI-Concern |  |  | 
CO/N=C(\C(=O)N[C@@H]1C(=O)N2C(C(=O)O)=C(/C=C\c3scnc3C)CS[C@H]12)c1csc(N)n1 [cefditoren] | Ambiguous DILI-concern | -VE |  | 

SMILES | DILI severity category [1] | DILI +VE (5-8), DILI -VE (-4) [2] | DILI +VE (5-8), DILI -VE (-4) (in vivo) | DILI severity category (in vivo)
CO/N=C(\C(=O)N[C@@H]1C(=O)N2C(C(=O)[O-])=C(C[N+]3(C)CCCC3)CS[C@H]12)c1csc(N)n1 [cefepime] |  |  | +VE | vLess-DILI-Concern
CO[C@@]1(NC(=O)Cc2cccs2)C(=O)N2C(C(=O)O)=C(COC(N)=O)CS[C@@H]21 [cefoxitin] | Ambiguous DILI-concern | -VE |  | 
COCC1=C(C(=O)O)N2C(=O)[C@@H](NC(=O)/C(=N\OC)c3csc(N)n3)[C@H]2SC1 [cefpodoxime] | Ambiguous DILI-concern | -VE |  | 
CC=CC1=C(C(=O)O)N2C(=O)[C@@H](NC(=O)[C@H](N)c3ccc(O)cc3)[C@H]2SC1 [cefprozil] |  |  | +VE | vLess-DILI-Concern
Nc1nc(/C(=C/CC(=O)O)C(=O)N[C@@H]2C(=O)N3C(C(=O)O)=CCS[C@H]23)cs1 [ceftibuten] | Ambiguous DILI-concern | -VE |  | 
CO/N=C(\C(=O)N[C@@H]1C(=O)N2C(C(=O)O)=CCS[C@H]12)c1csc(N)n1 [ceftizoxime] | Ambiguous DILI-concern | -VE |  | 
CO/N=C(\C(=O)N[C@@H]1C(=O)N2C(C(=O)O)=C(COC(N)=O)CS[C@H]12)c1ccco1 [cefuroxime] | vLess-DILI-Concern |  |  | 
CC1=C(C(=O)O)N2C(=O)[C@@H](NC(=O)[C@H](N)C3=CCC=CC3)[C@H]2SC1 [cephradine] | Ambiguous DILI-concern | -VE |  | 
CC(=O)N[C@H](Cc1ccc2ccccc2c1)C(=O)N[C@H](Cc1ccc(Cl)cc1)C(=O)N[C@H](Cc1cccnc1)C(=O)N[C@@H](CO)C(=O)N[C@@H](Cc1ccc(O)cc1)C(=O)N[C@H](CCCNC(N)=O)C(=O)N[C@@H](CC(C)C)C(=O)N[C@@H](CCCNC(=N)N)C(=O)N1CCC[C@H]1C(=O)N[C@H](C)C(N)=O [cetrorelix] (Ac-[d2Nal][dPhe(4-Cl)][d3Pal]SY[dCit]LRP[dA]-NH2) | Ambiguous DILI-concern | -VE |  | 
CC1OC2(CS1)CN1CCC2CC1 (stereo not drawn) [cevimeline] | Ambiguous DILI-concern | -VE |  | 
CN1CCN(C(c2ccccc2)c2ccc(Cl)cc2)CC1 (stereo not drawn) [chlorcyclizine] | vLess-DILI-Concern |  |  | 
CNC1=Nc2ccc(Cl)cc2C(c2ccccc2)=[N+]([O-])C1 [chlordiazepoxide] |  |  | +VE | vLess-DILI-Concern
CN1C(=O)CCS(=O)(=O)C1c1ccc(Cl)cc1 (stereo not drawn) [chlormezanone] |  |  | +VE | vMost-DILI-Concern
NS(=O)(=O)c1cc(C2(O)NC(=O)c3ccccc32)ccc1Cl (stereo not drawn) [chlorthalidone] | Ambiguous DILI-concern | -VE |  | 
Nc1ccn(C[C@@H](CO)OCP(=O)(O)O)c(=O)n1 [cidofovir] | Ambiguous DILI-concern | -VE |  | 
C[C@@H](NCCCc1cccc(C(F)(F)F)c1)c1cccc2ccccc12 [cinacalcet] | vNo-DILI-Concern | -VE |  | 
